Data from patent US20100285959A1, “HERBICIDAL MIXTURES” (priority 2006, published 2010).

Assays:
winter barley (HORVW) = assay: Test 21 growth chamber, postemergence; assay type: in vivo, Hordeum vulgare; conditions: 19 DAA
Experimental: (§1) A test was conducted to evaluate the effects on winter barley (HORVW, Hordeum vulgare L.), winter wheat (TRZAW, Triticum aestivum L.), and several weed species, of mixtures of Compound 2 with the commercial herbicide (2,4-dichlorophenoxy)acetic acid (2,4-D), an auxin mimic. […] Plants were treated postemergence at the 2-4 leaf growth stage, and each treatment was replicated one time. […] Plants were watered as needed. […] Results are from single replicates.

galium (GALAP) = assay: Test 21 growth chamber, postemergence; assay type: in vivo, Galium aparine; conditions: 19 DAA
Experimental: as §1

kochia (KCHSC) = assay: Test 21 growth chamber, postemergence; assay type: in vivo, Kochia scoparia; conditions: 19 DAA
Experimental: as §1

wild chamomile (MATCH) = assay: Test 21 growth chamber, postemergence; assay type: in vivo, Matricaria chamomilla; conditions: 19 DAA
Experimental: as §1

wild mustard (SINAR) = assay: Test 22 growth chamber, postemergence; assay type: in vivo, Sinapis arvensis; conditions: 25 DAA
Experimental: as §1, with “species” for “species,”, “herbicides” for “herbicide”, “(2,4-D) and (4-chloro-2-methylphenoxy)acetic acid (MCPA),” for “(2,4-D), an”, “mimics.” for “mimic.”, “stage, except KCHSC, SASKR” for “stage,”, “STEME which were in the 4-8 leaf growth stage. Each” for “each”

[1] = tested on: common lambsquarters (CHEAL); assay: Test 3 field trial, emerged weeds before corn planting; assay type: in vivo, Chenopodium album; conditions: 68 DAA; Cpd 2 100, glyphosate 1540, paraquat 1150 g a.i./ha, alone or combined
From the text: (§2) Corn seeds (hybrid ‘Pioneer 33J56’) were planted in early spring season, 3.8 cm deep in a silt loam soil having 2.4% organic matter and a pH of 6. Plots were 6.1 m long by 2.7 m wide with rows spaced 91.4 cm apart. The field was managed using no-till practices. […] Compound 2 and paraquat treatments, alone and in combination, also included a surfactant. Glyphosate, alone and with Compound 2, included ammonium sulfate in the treatment mixture. […] The effects on the weeds in the treated plots and untreated control plots were recorded 30, 42, 46 and 68 days after application. Most of the weed species could not be evaluated at every timing. Corn response was not evaluated because the growth was highly variable depending on the efficacy of the weed control treatments. […] Results are the means of the three replicates.

common chickweed (STEME) [2] = assay: as above; assay type: in vivo, Stellaria media; conditions: Cpd 2 100, glyphosate 1540, paraquat 1150 g a.i./ha, alone or combined
From the text: as §2

prickly lettuce (LACSE) = assay: Test 9 field trial, emerged weeds before corn planting; assay type: in vivo, Lactuca serriola; conditions: g a.i./ha: Cpd 2 100, Glyphosate 1540, Paraquat 1150
Experimental: (§3) Corn seeds (hybrid ‘Pioneer 34M91 RR’) were planted in mid spring season, about 3.8 cm deep in a silty clay loam soil having a pH of 6.7. Plots were 9.1 m long by 3.0 m. The field was managed using no-till practices. […] Compound 2 and paraquat treatments, alone and in combination, also included a surfactant. Glyphosate, alone and with Compound 2, included ammonium sulfate in the treatment mixture. […] The effects on the weeds in the treated plots and untreated control plots were recorded 7, 14, 23, 30 and 57 days after application. Most of the weed species could not be evaluated at every timing. Corn response was only evaluated 57 days after application. […] Results are the means of the three replicates.

common chickweed (STEME) [3] = assay: as above; assay type: in vivo, Stellaria media; conditions: g a.i./ha: Cpd 2 100, Glyphosate 1540, Paraquat 1150
Experimental: as §3

giant ragweed (AMBTR) = assay: Test 14 field trial, preemergence, growth as percent of control; assay type: in vivo, Ambrosia trifida
From the text: (§4) Corn seeds (hybrid ‘Pioneer 31G96 RR’) were planted in mid spring season, 3.8 cm deep in a clay loam soil having 2% organic matter and a pH of 6.6. Plots were 6.1 m long by 3.0 m wide with rows spaced 76 cm apart. Seeds were spaced 15 cm apart within the rows. The field was managed using conventional tillage practices. […] Yellow nutsedge was only evaluated 19 and 28 days after application, and ivyleaf morningglory could only be evaluated 28 days after application. […] Results are the means of the three replicates. This growth inhibition data was converted to results in the form of “plant growth as a percent of control plant growth” using the calculation “100 minus growth inhibition”. […] For “growth as a percent of control” data, Colby's Equation calculates the expected additive effect of herbicidal mixtures having two active ingredients as follows:
(§5) Ga+b=GaGb/100 • wherein Ga+b is the growth as a percent of control of plants treated with the mixture expected from additive contribution of the individual components, • Ga is the observed growth as a percent of control of plants treated with the first active ingredient at the same use rate as in the mixture, and • Gb is the observed growth as a percent of control of plants treated with the second active ingredient at the same use rate as in the mixture. For mixtures having three active ingredients, Colby's Equation to calculate the expected additive effect of herbicidal mixtures is as follows:
(§6) Ga+b+c=GaGbGc/10,000 • wherein Ga and Gb are as defined above and • Ga+b+c is the growth as a percent of control of plants treated with the mixture expected from additive contribution of the individual components, and • Gc is the observed growth as a percent of control of plants treated with the third active ingredient at the same use rate as in the mixture. When these two forms of Colby's Equation are used, if the observed effects on weeds are less than the expected values, the mixture is synergistic.

[4] = tested on: ivyleaf morningglory (IPOHE); assay: as above; assay type: in vivo, Ipomoea hederacea; conditions: 28 DAA
From the text: as §4, §5, §6

giant foxtail (SETFA) = assay: as above; assay type: in vivo, Setaria faberi
From the text: as §4, §5, §6

O=C(O)COc1ccc(Cl)cc1Cl [2,4-D, (2,4-dichlorophenoxy)acetic acid]
Postemergence HORVW Obs (winter barley (HORVW); 2,4-D alone 125 g a.i./ha): 25 | Postemergence HORVW Obs (winter barley (HORVW); 2,4-D alone 250 g a.i./ha): 25 | Postemergence GALAP Obs (galium (GALAP); 2,4-D alone 125 g a.i./ha): 30 | Postemergence GALAP Obs (galium (GALAP); 2,4-D alone 250 g a.i./ha): 35 | Postemergence KCHSC Obs (kochia (KCHSC); 2,4-D alone 125 g a.i./ha): 45 | Postemergence KCHSC Obs (kochia (KCHSC); 2,4-D alone 250 g a.i./ha): 45 | Postemergence MATCH Obs (wild chamomile (MATCH); 2,4-D alone 125 g a.i./ha): 40 | Postemergence MATCH Obs (wild chamomile (MATCH); 2,4-D alone 250 g a.i./ha): 45 | Postemergence SINAR Obs (wild mustard (SINAR); 2,4-D or MCPA alone 250 g a.i./ha): 75

COC(=O)c1nc(C2CC2)nc(N)c1Cl [Compound 2, methyl 6-amino-5-chloro-2-cyclopropyl-4-pyrimidinecarboxylate]
CHEAL Obs [1]: 100% | STEME Obs (common chickweed (STEME) [2]; 30 DAA): 62% | STEME Obs (common chickweed (STEME) [2]; 42 DAA): 37% | STEME Obs (common chickweed (STEME) [2]; 46 DAA): 30% | LACSE Obs (prickly lettuce (LACSE); 7 DAA): 58% | LACSE Obs (prickly lettuce (LACSE); 14 DAA): 63% | LACSE Obs (prickly lettuce (LACSE); 23 DAA): 70% | LACSE Obs (prickly lettuce (LACSE); 30 DAA): 88% | LACSE Obs (prickly lettuce (LACSE); 57 DAA): 98% | STEME Obs (common chickweed (STEME) [3]; 7 DAA): 22% | STEME Obs (common chickweed (STEME) [3]; 14 DAA): 13% | STEME Obs (common chickweed (STEME) [3]; 23 DAA): 3% | STEME Obs (common chickweed (STEME) [3]; 30 DAA): 0% | STEME Obs (common chickweed (STEME) [3]; 57 DAA): 0% | Obs growth % of control (giant ragweed (AMBTR); 19 DAA, 75 g a.i./ha): 65% | Obs growth % of control (giant ragweed (AMBTR); 19 DAA, 100 g a.i./ha): 73% | Obs growth % of control (giant ragweed (AMBTR); 28 DAA, 75 g a.i./ha): 100% | Obs growth % of control (giant ragweed (AMBTR); 28 DAA, 100 g a.i./ha): 23% | Obs growth % of control (giant ragweed (AMBTR); 56 DAA, 75 g a.i./ha): 20% | Obs growth % of control (giant ragweed (AMBTR); 56 DAA, 100 g a.i./ha): 18% | Obs growth % of control ([4]; 75 g a.i./ha): 0% | Obs growth % of control ([4]; 100 g a.i./ha): 0% | Obs growth % of control (giant foxtail (SETFA); 19 DAA, 75 g a.i./ha): 58% | Obs growth % of control (giant foxtail (SETFA); 19 DAA, 100 g a.i./ha): 48% | Obs growth % of control (giant foxtail (SETFA); 28 DAA, 75 g a.i./ha): 68% | Obs growth % of control (giant foxtail (SETFA); 28 DAA, 100 g a.i./ha): 67% | Obs growth % of control (giant foxtail (SETFA); 56 DAA, 75 g a.i./ha): 92% | Obs growth % of control (giant foxtail (SETFA); 56 DAA, 100 g a.i./ha): 97% | Postemergence HORVW Obs (winter barley (HORVW); Cpd 2 alone 16 g a.i./ha): 30 | Postemergence GALAP Obs (galium (GALAP); Cpd 2 alone 16 g a.i./ha): 90 | Postemergence KCHSC Obs (kochia (KCHSC); Cpd 2 alone 16 g a.i./ha): 65 | Postemergence MATCH Obs (wild chamomile (MATCH); Cpd 2 alone 16 g a.i./ha): 60 | Postemergence SINAR Obs (wild mustard (SINAR); Cpd 2 alone 4 g a.i./ha): 60 | Postemergence SINAR Obs (wild mustard (SINAR); Cpd 2 alone 8 g a.i./ha): 65 | Postemergence SINAR Obs (wild mustard (SINAR); Cpd 2 alone 16 g a.i./ha): 65

O=C(O)CNCP(=O)(O)O [Glyphosate]
CHEAL Obs [1]: 0% | STEME Obs (common chickweed (STEME) [2]; 30 DAA): 100% | STEME Obs (common chickweed (STEME) [2]; 42 DAA): 88% | STEME Obs (common chickweed (STEME) [2]; 46 DAA): 100% | LACSE Obs (prickly lettuce (LACSE); 7 DAA): 45% | LACSE Obs (prickly lettuce (LACSE); 14 DAA): 87% | LACSE Obs (prickly lettuce (LACSE); 23 DAA): 99% | LACSE Obs (prickly lettuce (LACSE); 30 DAA): 100% | LACSE Obs (prickly lettuce (LACSE); 57 DAA): 100% | STEME Obs (common chickweed (STEME) [3]; 7 DAA): 42% | STEME Obs (common chickweed (STEME) [3]; 14 DAA): 84% | STEME Obs (common chickweed (STEME) [3]; 23 DAA): 93% | STEME Obs (common chickweed (STEME) [3]; 30 DAA): 100% | STEME Obs (common chickweed (STEME) [3]; 57 DAA): 99%

CCc1cccc(C)c1N(C(=O)CCl)[C@@H](C)COC [S-Metolachlor, S-metolachlor, reference compound]
Obs growth % of control (giant ragweed (AMBTR); 19 DAA, 1870 g a.i./ha): 83% | Obs growth % of control (giant ragweed (AMBTR); 28 DAA, 1870 g a.i./ha): 88% | Obs growth % of control (giant ragweed (AMBTR); 56 DAA, 1870 g a.i./ha): 100% | Obs growth % of control ([4]; 1870 g a.i./ha): 0% | Obs growth % of control (giant foxtail (SETFA); 19 DAA, 1870 g a.i./ha): 7% | Obs growth % of control (giant foxtail (SETFA); 28 DAA, 1870 g a.i./ha): 5% | Obs growth % of control (giant foxtail (SETFA); 56 DAA, 1870 g a.i./ha): 1%
